Test results published in US5976830A, “Methods of producing doxorubicin” (priority 1996, dated 1999).

Test system: Streptomyces lividans TK24(pANT195)
Experiment: Viability of doxA-transformed culture incubated with daunomycin
Type: cell-based
Procedure: Cultures of S. lividans TK24 containing plasmid pANT195 and control cultures of S. lividans TK24 containing plasmid pANT849 were grown on R2YE agar medium containing 10 μg/ml of thiostrepton in standard 100 mm×15 mm plastic petri dishes for 5 days at 30° C., at which time the entire cultures had sporulated. The spores from one entire petri plate were used to inoculate 50 ml of modified YEME medium in 250 ml erlenmeyer flasks. Then 10 μg/ml thiostrepton in DMSO were added to the medium. The thiostrepton was added as selective pressure to maintain the plasmids. The cultures were grown for 48 hours at 30° C. with rotary shaking at 250 rpm, one inch throw on the shaker. After 48 hours, a 1.5 ml sample was removed for plasmid analysis to ensure the presence and size of the insert DNA containing the doxA gene using a "mini-prep" procedure according to Carter, M. J., and I. D. Milton, (1993), "An Inexpensive and Simple Method for DNA Purification on Silica Particles," Nucleic Acids Res., Vol. 21, page 1044. Restriction endonuclease digestion with BspEI and agarose gel electrophoresis generated 1.7 kbp, 2.2 kbp, and 3.14 kbp fragments which indicated an intact plasmid and insert. Then a 10 μL solution containing 100 μg of filter sterilized daunomycin-HCl in distilled water was added to the cultures for a final concentration of 2.0 μg of daunomycin per ml of culture broth. Incubation was continued for 72 hours.
The procedure of Example 1 was repeated, with the following exceptions. The cultures were grown at 28° C. rather than 30° C., for 48 hours. After 48 hours of growth, 500 μg of daunomycin-HCl were added to the cultures for a final concentration of 10.0 μg/ml of daunomycin followed by further incubation for 36 hours, instead of 72 hours.
A 50 ml culture of Streptomyces lividans TK24(pANT195) culture was prepared as in Example 1. […] The cultures were incubated for 48 hours and then extracted as described in Example 1 and analyzed by HPLC and TLC. […]

COc1cccc2c1C(=O)c1c(O)c3c(c(O)c1C2=O)C[C@@](O)(C(C)=O)C[C@@H]3O[C@H]1C[C@H](N)[C@H](O)[C@H](C)O1 [daunomycin]
state of the cultures after incubation with daunomycin (2 μg/ml of daunomycin, cultures of Examples 1 and 2): fully viable
toxicity to the host (16.7 μg/ml of daunomycin, about 8-fold concentrated mycelia in MOPS buffer pH 7.2 (Example 10)): toxic to the host
state of the doxA transformed culture at the end of incubation (22.2 μg/ml daunomycin, 48 hours, 28° C., YEME medium (Example 3)): virtually dead
